Experimental data reported in patent publication EP4684782A1, “COSMETIC COMPOSITION FOR ANTIOXIDATION” (LG Chem, Ltd., priority 2023, dated 2025).
Several values for one entry are separate records, joined by “and”; a condition that tells them apart may be missing. Equal entries are not always repeated.

Key:
human skin tissues = test: Skin tissue cell stability experiment (explant tissue culture, HE staining); format: cell-based; settings: 3HP applied at concentrations of 1%, 5%, and 10%, tissues obtained 24 hours after application, FIG. 1
Experimental: The human skin tissues provided for research purposes (IRB No. 4-2023-0054; Institutional Review Board, Severance Medical Center, Yonsei University College of Medicine) was defatted, and washed several times with PBS (phosphate buffered saline; Lonza) to remove residual impurities. The skin tissues were prepared into a size of 1 cm × 1 cm for each test group, and the test composition was applied to the prepared skin tissues, and PBS was applied to the negative control. The skin tissues in which the absorption of the test composition has been completed were cultured in a special medium at 37°C, 5% CO2.
Tissues obtained 24 hours after application of the test composition were fixed with 10% formalin, and then paraffin blocks and paraffin-embedded slides were prepared. The deparaffinized tissues were stained for nuclei with hematoxylin (S3309; dako) solution, and then washed in running water. The cytoplasm was stained with eosin (318906; sigma) solution, and then the tissues were completely dehydrated through washing process and fixed using a mounting solution. The epidermis and papillary dermis of the fixed tissues were photographed at 400x magnification using an optical microscope (BX43F; OLYMPUS).

[1] = DPPH radical scavenging ability (antioxidant power), absorbance at 520 nm; format: biochemical; settings: for Antioxidant power, Average: average of three measurements, 30 min; for Antioxidant power: single measurements (Once, Two times, Three times), 0.5 mM DPPH, room temperature, 30 minutes
Experimental: The DPPH radical expresses a dark purple color. The DPPH radical is reduced by the antioxidant effective ingredient, and the dark purple color is discolored. The performance of the antioxidant effective ingredient can be measured using such characteristics.
The 3HP aqueous solution obtained from Preparation Example 1 was prepared at five different concentrations (0 wt.%, 1 wt.%, 5 wt.%, 10 wt.%, 70 wt.%), 50 µℓ of each 3HP aqueous solution and 150 µℓ of methanol were dispensed into a 96-well plate and reacted at room temperature for 30 minutes. The absorbance (ODcontrol group, wavelength 520 nm) was repeatedly measured three times.
A DPPH aqueous solution containing 0.5 mM DPPH (free radical, 95%, Alfa Aesar) was prepared. 50 µℓ of methanol and 150 µℓ of the DPPH aqueous solution were dispensed into a 96-well plate and reacted at room temperature for 30 minutes. The absorbance (ODnegative control group, wavelength 520 nm) was repeatedly measured three times.
A DPPH aqueous solution containing 0.5 mM DPPH (free radical, 95%, Alfa Aesar) was prepared. The 3HP aqueous solution obtained from Preparation Example 1 was prepared at five different concentrations (0 wt.%, 1 wt.%, 5 wt.%, 10 wt.%, 70 wt.%), and 50 µℓ of each 3HP aqueous solution and 150 µℓ of the DPPH aqueous solution were dispensed into a 96-well plate and reacted at room temperature for 30 minutes. The absorbance (ODexperimental group, wavelength 520 nm) was repeatedly measured three times.
The absorbance at a wavelength of 520 nm was measured using a micro reader.
The DPPH radical scavenging ability (antioxidant power) of 3HP was calculated according to the following Equation 1, and the results are shown in Tables below. [formula]

O=C(O)CCO [Example 3HP, 3-hydroxypropionic acid]
damage to the epidermis and dermis or separation between tissues (human skin tissues): no damage to the epidermis and dermis or separation between tissues were observed | Antioxidant power, Average ([1]; 3HP treated concentration 1 %): 0.904% | Antioxidant power ([1]; 3HP treated concentration 1 %): 0.850% and 1.042% and 0.819% | Antioxidant power, Average ([1]; 3HP treated concentration 5%): 2.474% | Antioxidant power ([1]; 3HP treated concentration 5%): 2.452% and 2.552% and 2.419% | Antioxidant power, Average ([1]; 3HP treated concentration 10 %): 5.175% | Antioxidant power ([1]; 3HP treated concentration 10 %): 5.209% and 5.205% and 5.111% | Antioxidant power, Average ([1]; 3HP treated concentration 70 %): 21.011% | Antioxidant power ([1]; 3HP treated concentration 70 %): 20.888% and 21.142% and 21.002% | DPPH radical scavenging ability ([1]; under the treatment concentrations tested (1, 5, 10, 70 wt.%), result in words): significant DPPH radical scavenging ability was exhibited
